Experimental data: the OligoGym collection
Oligonucleotides are given in HELM: sugar(base)linkage, 5' to 3'; d 2'-deoxyribose, r ribose, m 2'-O-methylribose, p phosphate. ss, as = sense and antisense strand

What follows are substances tested against UBE2K (assay: reporter assay of Huesken 2005). Settings: siRNA.
Further: test concentration or dose not given here.

Substance	normalised inhibition (eCFP-eYFP dual reporter) [%]
RNA1{r(G)p.r(C)p.r(A)p.r(G)p.r(C)p.r(U)p.r(G)p.r(C)p.r(A)p.r(A)p.r(U)p.r(G)p.r(A)p.r(C)p.r(U)p.r(C)p.r(U)p.r(C)p.r(C)p.d(T)p.d(T)}|RNA2{r(G)p.r(G)p.r(A)p.r(G)p.r(A)p.r(G)p.r(U)p.r(C)p.r(A)p.r(U)p.r(U)p.r(G)p.r(C)p.r(A)p.r(G)p.r(C)p.r(U)p.r(G)p.r(C)p.d(C)p.d(C)}$$$RNA1{StrandType:ss}|RNA2{StrandType:as}$	47.4
RNA1{r(G)p.r(C)p.r(C)p.r(A)p.r(G)p.r(A)p.r(U)p.r(G)p.r(A)p.r(U)p.r(C)p.r(C)p.r(A)p.r(C)p.r(A)p.r(G)p.r(G)p.r(A)p.r(U)p.d(T)p.d(T)}|RNA2{r(A)p.r(U)p.r(C)p.r(C)p.r(U)p.r(G)p.r(U)p.r(G)p.r(G)p.r(A)p.r(U)p.r(C)p.r(A)p.r(U)p.r(C)p.r(U)p.r(G)p.r(G)p.r(C)p.d(T)p.d(C)}$$$RNA1{StrandType:ss}|RNA2{StrandType:as}$	74.9
RNA1{r(G)p.r(C)p.r(U)p.r(G)p.r(C)p.r(A)p.r(A)p.r(U)p.r(G)p.r(A)p.r(C)p.r(U)p.r(C)p.r(U)p.r(C)p.r(C)p.r(G)p.r(C)p.r(A)p.d(T)p.d(T)}|RNA2{r(U)p.r(G)p.r(C)p.r(G)p.r(G)p.r(A)p.r(G)p.r(A)p.r(G)p.r(U)p.r(C)p.r(A)p.r(U)p.r(U)p.r(G)p.r(C)p.r(A)p.r(G)p.r(C)p.d(T)p.d(G)}$$$RNA1{StrandType:ss}|RNA2{StrandType:as}$	87.1
RNA1{r(G)p.r(C)p.r(U)p.r(G)p.r(U)p.r(A)p.r(G)p.r(U)p.r(A)p.r(G)p.r(C)p.r(A)p.r(A)p.r(A)p.r(U)p.r(C)p.r(A)p.r(G)p.r(U)p.d(T)p.d(T)}|RNA2{r(A)p.r(C)p.r(U)p.r(G)p.r(A)p.r(U)p.r(U)p.r(U)p.r(G)p.r(C)p.r(U)p.r(A)p.r(C)p.r(U)p.r(A)p.r(C)p.r(A)p.r(G)p.r(C)p.d(A)p.d(T)}$$$RNA1{StrandType:ss}|RNA2{StrandType:as}$	87.4
RNA1{r(G)p.r(G)p.r(C)p.r(A)p.r(G)p.r(C)p.r(U)p.r(G)p.r(C)p.r(A)p.r(A)p.r(U)p.r(G)p.r(A)p.r(C)p.r(U)p.r(C)p.r(U)p.r(C)p.d(T)p.d(T)}|RNA2{r(G)p.r(A)p.r(G)p.r(A)p.r(G)p.r(U)p.r(C)p.r(A)p.r(U)p.r(U)p.r(G)p.r(C)p.r(A)p.r(G)p.r(C)p.r(U)p.r(G)p.r(C)p.r(C)p.d(C)p.d(A)}$$$RNA1{StrandType:ss}|RNA2{StrandType:as}$	57.6
RNA1{r(G)p.r(G)p.r(C)p.r(A)p.r(G)p.r(C)p.r(U)p.r(G)p.r(C)p.r(A)p.r(G)p.r(A)p.r(G)p.r(C)p.r(C)p.r(A)p.r(G)p.r(A)p.r(U)p.d(T)p.d(T)}|RNA2{r(A)p.r(U)p.r(C)p.r(U)p.r(G)p.r(G)p.r(C)p.r(U)p.r(C)p.r(U)p.r(G)p.r(C)p.r(A)p.r(G)p.r(C)p.r(U)p.r(G)p.r(C)p.r(C)p.d(A)p.d(A)}$$$RNA1{StrandType:ss}|RNA2{StrandType:as}$	81.8
RNA1{r(G)p.r(G)p.r(G)p.r(G)p.r(C)p.r(U)p.r(A)p.r(U)p.r(U)p.r(U)p.r(G)p.r(U)p.r(U)p.r(U)p.r(G)p.r(G)p.r(A)p.r(U)p.r(A)p.d(T)p.d(T)}|RNA2{r(U)p.r(A)p.r(U)p.r(C)p.r(C)p.r(A)p.r(A)p.r(A)p.r(C)p.r(A)p.r(A)p.r(A)p.r(U)p.r(A)p.r(G)p.r(C)p.r(C)p.r(C)p.r(C)p.d(T)p.d(G)}$$$RNA1{StrandType:ss}|RNA2{StrandType:as}$	81.2
RNA1{r(G)p.r(G)p.r(U)p.r(U)p.r(U)p.r(A)p.r(U)p.r(C)p.r(A)p.r(C)p.r(U)p.r(A)p.r(A)p.r(A)p.r(A)p.r(U)p.r(A)p.r(U)p.r(G)p.d(T)p.d(T)}|RNA2{r(C)p.r(A)p.r(U)p.r(A)p.r(U)p.r(U)p.r(U)p.r(U)p.r(A)p.r(G)p.r(U)p.r(G)p.r(A)p.r(U)p.r(A)p.r(A)p.r(A)p.r(C)p.r(C)p.d(G)p.d(G)}$$$RNA1{StrandType:ss}|RNA2{StrandType:as}$	81.2
RNA1{r(G)p.r(U)p.r(A)p.r(C)p.r(A)p.r(A)p.r(A)p.r(C)p.r(A)p.r(A)p.r(A)p.r(A)p.r(U)p.r(C)p.r(C)p.r(C)p.r(G)p.r(A)p.r(A)p.d(T)p.d(T)}|RNA2{r(U)p.r(U)p.r(C)p.r(G)p.r(G)p.r(G)p.r(A)p.r(U)p.r(U)p.r(U)p.r(U)p.r(G)p.r(U)p.r(U)p.r(U)p.r(G)p.r(U)p.r(A)p.r(C)p.d(T)p.d(G)}$$$RNA1{StrandType:ss}|RNA2{StrandType:as}$	73.9
RNA1{r(G)p.r(U)p.r(A)p.r(G)p.r(U)p.r(A)p.r(G)p.r(C)p.r(A)p.r(A)p.r(A)p.r(U)p.r(C)p.r(A)p.r(G)p.r(U)p.r(A)p.r(C)p.r(A)p.d(T)p.d(T)}|RNA2{r(U)p.r(G)p.r(U)p.r(A)p.r(C)p.r(U)p.r(G)p.r(A)p.r(U)p.r(U)p.r(U)p.r(G)p.r(C)p.r(U)p.r(A)p.r(C)p.r(U)p.r(A)p.r(C)p.d(A)p.d(G)}$$$RNA1{StrandType:ss}|RNA2{StrandType:as}$	92.1
RNA1{r(G)p.r(U)p.r(U)p.r(U)p.r(G)p.r(G)p.r(A)p.r(U)p.r(A)p.r(U)p.r(C)p.r(C)p.r(U)p.r(G)p.r(A)p.r(A)p.r(A)p.r(G)p.r(A)p.d(T)p.d(T)}|RNA2{r(U)p.r(C)p.r(U)p.r(U)p.r(U)p.r(C)p.r(A)p.r(G)p.r(G)p.r(A)p.r(U)p.r(A)p.r(U)p.r(C)p.r(C)p.r(A)p.r(A)p.r(A)p.r(C)p.d(A)p.d(A)}$$$RNA1{StrandType:ss}|RNA2{StrandType:as}$	87.1
RNA1{r(U)p.r(A)p.r(C)p.r(A)p.r(A)p.r(A)p.r(C)p.r(A)p.r(A)p.r(A)p.r(A)p.r(U)p.r(C)p.r(C)p.r(C)p.r(G)p.r(A)p.r(A)p.r(A)p.d(T)p.d(T)}|RNA2{r(U)p.r(U)p.r(U)p.r(C)p.r(G)p.r(G)p.r(G)p.r(A)p.r(U)p.r(U)p.r(U)p.r(U)p.r(G)p.r(U)p.r(U)p.r(U)p.r(G)p.r(U)p.r(A)p.d(C)p.d(T)}$$$RNA1{StrandType:ss}|RNA2{StrandType:as}$	66.1
RNA1{r(U)p.r(A)p.r(G)p.r(A)p.r(U)p.r(C)p.r(U)p.r(U)p.r(G)p.r(U)p.r(A)p.r(G)p.r(A)p.r(U)p.r(G)p.r(A)p.r(G)p.r(A)p.r(A)p.d(T)p.d(T)}|RNA2{r(U)p.r(U)p.r(C)p.r(U)p.r(C)p.r(A)p.r(U)p.r(C)p.r(U)p.r(A)p.r(C)p.r(A)p.r(A)p.r(G)p.r(A)p.r(U)p.r(C)p.r(U)p.r(A)p.d(C)p.d(T)}$$$RNA1{StrandType:ss}|RNA2{StrandType:as}$	85.7
RNA1{r(U)p.r(A)p.r(G)p.r(U)p.r(A)p.r(G)p.r(C)p.r(A)p.r(A)p.r(A)p.r(U)p.r(C)p.r(A)p.r(G)p.r(U)p.r(A)p.r(C)p.r(A)p.r(A)p.d(T)p.d(T)}|RNA2{r(U)p.r(U)p.r(G)p.r(U)p.r(A)p.r(C)p.r(U)p.r(G)p.r(A)p.r(U)p.r(U)p.r(U)p.r(G)p.r(C)p.r(U)p.r(A)p.r(C)p.r(U)p.r(A)p.d(C)p.d(A)}$$$RNA1{StrandType:ss}|RNA2{StrandType:as}$	87.9
RNA1{r(U)p.r(A)p.r(U)p.r(U)p.r(G)p.r(U)p.r(C)p.r(A)p.r(U)p.r(U)p.r(G)p.r(C)p.r(A)p.r(A)p.r(G)p.r(C)p.r(A)p.r(C)p.r(U)p.d(T)p.d(T)}|RNA2{r(A)p.r(G)p.r(U)p.r(G)p.r(C)p.r(U)p.r(U)p.r(G)p.r(C)p.r(A)p.r(A)p.r(U)p.r(G)p.r(A)p.r(C)p.r(A)p.r(A)p.r(U)p.r(A)p.d(A)p.d(T)}$$$RNA1{StrandType:ss}|RNA2{StrandType:as}$	89.2
RNA1{r(U)p.r(C)p.r(C)p.r(A)p.r(G)p.r(A)p.r(C)p.r(A)p.r(C)p.r(A)p.r(C)p.r(C)p.r(A)p.r(U)p.r(A)p.r(U)p.r(G)p.r(A)p.r(A)p.d(T)p.d(T)}|RNA2{r(U)p.r(U)p.r(C)p.r(A)p.r(U)p.r(A)p.r(U)p.r(G)p.r(G)p.r(U)p.r(G)p.r(U)p.r(G)p.r(U)p.r(C)p.r(U)p.r(G)p.r(G)p.r(A)p.d(G)p.d(G)}$$$RNA1{StrandType:ss}|RNA2{StrandType:as}$	73.9
RNA1{r(U)p.r(C)p.r(C)p.r(G)p.r(G)p.r(U)p.r(U)p.r(U)p.r(A)p.r(U)p.r(C)p.r(A)p.r(C)p.r(U)p.r(A)p.r(A)p.r(A)p.r(A)p.r(U)p.d(T)p.d(T)}|RNA2{r(A)p.r(U)p.r(U)p.r(U)p.r(U)p.r(A)p.r(G)p.r(U)p.r(G)p.r(A)p.r(U)p.r(A)p.r(A)p.r(A)p.r(C)p.r(C)p.r(G)p.r(G)p.r(A)p.d(C)p.d(C)}$$$RNA1{StrandType:ss}|RNA2{StrandType:as}$	73
RNA1{r(U)p.r(C)p.r(U)p.r(U)p.r(G)p.r(U)p.r(A)p.r(G)p.r(A)p.r(U)p.r(G)p.r(A)p.r(G)p.r(A)p.r(A)p.r(U)p.r(U)p.r(U)p.r(U)p.d(T)p.d(T)}|RNA2{r(A)p.r(A)p.r(A)p.r(A)p.r(U)p.r(U)p.r(C)p.r(U)p.r(C)p.r(A)p.r(U)p.r(C)p.r(U)p.r(A)p.r(C)p.r(A)p.r(A)p.r(G)p.r(A)p.d(T)p.d(C)}$$$RNA1{StrandType:ss}|RNA2{StrandType:as}$	84.4
RNA1{r(U)p.r(G)p.r(A)p.r(A)p.r(A)p.r(G)p.r(A)p.r(U)p.r(C)p.r(A)p.r(A)p.r(U)p.r(G)p.r(G)p.r(G)p.r(C)p.r(A)p.r(G)p.r(C)p.d(T)p.d(T)}|RNA2{r(G)p.r(C)p.r(U)p.r(G)p.r(C)p.r(C)p.r(C)p.r(A)p.r(U)p.r(U)p.r(G)p.r(A)p.r(U)p.r(C)p.r(U)p.r(U)p.r(U)p.r(C)p.r(A)p.d(G)p.d(G)}$$$RNA1{StrandType:ss}|RNA2{StrandType:as}$	57.3
RNA1{r(U)p.r(G)p.r(A)p.r(A)p.r(G)p.r(G)p.r(A)p.r(G)p.r(G)p.r(A)p.r(A)p.r(G)p.r(A)p.r(U)p.r(A)p.r(C)p.r(C)p.r(A)p.r(A)p.d(T)p.d(T)}|RNA2{r(U)p.r(U)p.r(G)p.r(G)p.r(U)p.r(A)p.r(U)p.r(C)p.r(U)p.r(U)p.r(C)p.r(C)p.r(U)p.r(C)p.r(C)p.r(U)p.r(U)p.r(C)p.r(A)p.d(T)p.d(A)}$$$RNA1{StrandType:ss}|RNA2{StrandType:as}$	82.7
